Experimental data reported in PMC10053230, “Constituents of the Stem Bark of Symphonia globulifera Linn. f. with Antileishmanial and Antibacterial Activities” (Molecules, 2023).
Converted amounts (≈) assume the structure as drawn. Read-outs that look alike come from different tables or passages of the source.

Assays:
[1] = test system: Raw 264.7 macrophage cells; experiment: Cytotoxicity, Alamar blue assay; type: cell-based; details: for Selectivity Index SI (=CC50/IC50): CC50 Raw 264.7 macrophages / IC50 L. donovani
Description: (§1) (2010) with little modifications. […] Test plates were incubated for 28 h at 28 °C, followed by the addition of 1 mg/mL resazurin. […] The cytotoxicity profile of the crude extract and compounds was assessed using the Alamar blue assay (Mosman, 1983) against Raw 264.7 macrophage cells.

[2] = test system: L. donovani NR-48822 promastigotes; experiment: In vitro antileishmanial assay, resazurin colorimetric method; type: cell-based, Leishmania donovani; details: 28 h at 28 °C, triplicate; for IC50: Leishmania donovani, read-out: Antileishmanial Activity IC50 ± SD
Description: The antileishmanial activity on cultured L. donovani 1S (MHOM/SD/62/1S) promastigotes was evaluated using the resazurin colorimetric method as described by Siqueira-Neto et al. (2010) with little modifications. They were all assessed in triplicate at concentrations ranging from 100 to 0.16 µg/mL for the extract and 50–0.08 µg/mL for the compounds. Test plates were incubated for 28 h at 28 °C, followed by the addition of 1 mg/mL resazurin. The negative and positive controls were 0.1% DMSO and amphotericin B (10–0.016 µg/mL), respectively. The cytotoxicity profile of the crude extract and compounds was assessed using the Alamar blue assay (Mosman, 1983) against Raw 264.7 macrophage cells.

[3] = Cytotoxicity, Alamar blue assay; type: cell-based; details: mouse; Raw 264.7 macrophage cells; read-out: Macrophages CC50 ± SD
Description: as §1

[4] = test system: Klebsiella pneumoniae clinical isolate; experiment: Antibacterial broth microdilution (MIC); type: cell-based; details: read-out: Antibacterial Activity MIC, Kpc
Description: (§2) The minimum inhibitory concentration (MIC) of the samples was evaluated following the broth microdilution method as described by Eloff, with light modifications. The extracts, compounds, and reference drug were dissolved in DMSO-MHB. […] Gentamicin was used as the positive control. Briefly, one hundred microliters of Mueller Hinton Broth was added to all wells of the 96-well plate, and 100 µL of the compounds/extracts was introduced into the wells in the first row (A) and mixed thoroughly. The sample mixture (100 µL) was removed from the well from row A to perform a twofold serial dilution down the rows (B–H). The last 100 µL was discarded. Then, 100 µL of the inoculum was introduced into the corresponding wells. The final volume in each well was 200 µL. Each extract concentration was assayed in triplicate and each test was performed twice. After an incubation period of 18 h at 37 °C, 20 µL of Alamar Blue was added to each well. The plates were then re-incubated for 30 min at 37 °C. A blue color in the well was scored as ‘‘no bacterial growth”, while a pink color was scored as a ‘‘growth occurrence”. MIC values were read at those concentrations where a pronounced change in color formation was noticed (from blue to pink).

Salmonella typhi CPC = experiment: Antibacterial broth microdilution (MIC); type: cell-based; details: Salmonella enterica, read-out: Antibacterial Activity MIC, St
Description: as §2

S. enterica NR13555 = experiment: Antibacterial broth microdilution (MIC); type: cell-based; details: Salmonella enterica, read-out: Antibacterial Activity MIC, Se
Description: as §2

[5] = test system: Pseudomonas aeruginosa HM801; experiment: Antibacterial broth microdilution (MIC); type: cell-based
Description: as §2

[6] = test system: Staphylococcus aureus ATCC43300; experiment: Antibacterial broth microdilution (MIC); type: cell-based; details: read-out: Antibacterial Activity MIC, Sa
Description: as §2

S. aureus ATCC25923 = experiment: Antibacterial broth microdilution (MIC); type: cell-based; details: Staphylococcus aureus, read-out: Antibacterial Activity MIC, Sau
Description: as §2

K. pneumoniae NR41388 = experiment: Antibacterial broth microdilution (MIC); type: cell-based, Klebsiella pneumoniae
Description: as §2

[7] = Klebsiella pneumoniae clinical isolate
[8] = Pseudomonas aeruginosa HM801, read-out: Antibacterial Activity MIC, Pa

| Molecule | IC50 [2] [µg/mL] | CC50 [3] [µg/mL] | Selectivity Index SI (=CC50/IC50) [1] | MIC (Salmonella typhi CPC) [µg/mL] | MIC (S. enterica NR13555) [µg/mL] | MIC [6] [µg/mL] | MIC (S. aureus ATCC25923) [µg/mL] | further results |
| --- | --- | --- | --- | --- | --- | --- | --- | --- |
| 1,5-dihydroxy-3-methoxyxanthone [Compound 10] |  |  |  |  |  |  |  | Macrophages CC50 ± SD ([1]; Raw 264.7 macrophage cells): >20 µg/mL; Antileishmanial Activity IC50 ± SD [2]: 47.04 ± 1.67 µg/mL |
| C[C@@H]1[C@H](O)[C@@H](C)/C=C/C=C/C=C/C=C/C=C/C=C/C=C/[C@H](O[C@@H]2O[C@H](C)[C@@H](O)[C@H](N)[C@@H]2O)C[C@@H]2O[C@](O)(C[C@@H](O)C[C@@H](O)[C@H](O)CC[C@@H](O)C[C@@H](O)CC(=O)O[C@H]1C)C[C@H](O)[C@H]2C(=O)O [Amphotericin B, reference compound] | 0.048 (≈ 0.0519 µM) |  |  |  |  |  |  |  |
| C=C(C)CCC1CC2(CC=C(C)C)C(=O)C(=C(O)c3ccc(O)c(O)c3)C(=O)C(CC=C(C)C)(C2=O)C1(C)CCC=C(C)C (stereo not shown) [Compound 1, guttiferone U] | 12.9 ± 1.11 (≈ 21.4 µM) | 28.1 ± 5.72 (≈ 46.5 µM) | 2.17 | 3.9 (≈ 6.47 µM) | 62.5 (≈ 104 µM) | 125 (≈ 207 µM) | 3.9 (≈ 6.47 µM) | MIC [4, 7]: 3.9 µg/mL (≈ 6.47 µM); MIC [5, 8]: 3.9 µg/mL (≈ 6.47 µM); Antibacterial Activity MIC, Kp (K. pneumoniae NR41388): 62.5 µg/mL |
| CC(C)=CCCC(C)=CCCC(C)=CCCC1(C)CCC2=C(O1)C(C)(O)C(O)C2=O (stereo not shown) [Compound 4, 12-farnesyl-6,7-dihydroxy-7-methyl-3,4,6,7-tetrahydrocyclopenta[b]pyran-5(2H)-one] | 14 ± 1.14 (≈ 33.7 µM) | > 20 |  | 31.2 (≈ 74.9 µM) | 125 (≈ 300 µM) | 500 (≈ 1200 µM) | 62.5 (≈ 150 µM) | MIC ([4]; Klebsiella pneumoniae): 31.2 µg/mL (≈ 74.9 µM); MIC ([5]; Pseudomonas aeruginosa, HM801, read-out: Antibacterial Activity MIC, Pa): 31.2 µg/mL (≈ 74.9 µM); Antibacterial Activity MIC, Kp (K. pneumoniae NR41388): 62.5 µg/mL |
| COc1cc2c(=O)c3c(O)c4c(c(CC=C(C)C)c3oc2c(O)c1OC)OC(C)(C)C=C4 [Compound 6, gaboxanthone] | 16 ± 1.2 (≈ 36.4 µM) | > 20 | >1.25 |  |  |  |  |  |
| COc1cc2c(=O)c3c(O)c4c(c(CC=C(C)C)c3oc2c(O)c1O)OC(C)(C)C=C4 [Compound 7, xanthone V2] | 12.9 ± 1.11 (≈ 30.4 µM) | > 20 | >1.54 |  |  |  |  |  |
| CC1(C)C=Cc2c(cc3oc4c(O)c5c(cc4c(=O)c3c2O)C=CC(C)(C)O5)O1 [Compound 8, pyranojacareubin] | 12.9 ± 1.11 (≈ 32.9 µM) | > 20 | >1.54 |  |  |  |  |  |
| CNC(C)C1CCC(N)C(OC2C(N)CC(N)C(OC3OCC(C)(O)C(NC)C3O)C2O)O1 (stereo not shown) [Gentamycin, reference compound] |  |  |  | 0.048 (≈ 0.101 µM) | 0.07 (≈ 0.147 µM) | 0.07 (≈ 0.147 µM) | 0.03 (≈ 0.0628 µM) | MIC [4, 7]: 0.048 µg/mL (≈ 0.101 µM); MIC [5, 8]: 0.048 µg/mL (≈ 0.101 µM) |
